# Data as given in patent US20110135588A1, “Hair Conditioning Composition Comprising Quaternized Silicone Polymer, Silicone Copolymer, and Carbamate” (priority 2009, published 2011).
# Experiment: Product appearance (compatibility with the quaternized silicone polymer and/or solvent thereof): silicone particle size observed by microscope
# Type: physicochemical
# Details: preservative used together with quaternized silicone polymer and its solvent
# Method: Product Appearance (Compatibility with the Quaternized Silicone Polymer and/or Solvent Thereof)
# Product appearance is evaluated as follows, by silicone particle size in compositions which was observed using micro scope.
# Pass: Average silicone particle size is 200 μm or less
# Fail: Average silicone particle size is above 200 μm (excluding 200 μm)
row,SMILES,Agglomeration of quaternized silicone polymer (product appearance)
1,C/C=C/C=C/C(=O)[O-].[K+] [potassium sorbate],form agglomerates
2,O=C(O)c1ccccc1O [salicylic acid],form agglomerates
